pKi: −log10 of the molar value. Where “and” joins values, the source holds several entries; their conditions need not be identical. Equal values may be shown once. Read-outs that look alike come from different tables or passages of the source.
Tests used:
human thrombin = biological target: T1, human thrombin (Homo sapiens, UniProt P00734); assay: Protease inhibitory assay, chromogenic substrate S-2238; format: biochemical; settings: for vinit: replicate values; for pKi: Thrombin, one of two values averaged in Supplementary Data 1, read-out: Ki
T1 construct: human thrombin; purchased Sigma-Aldrich

bovine factor Xa = biological target: T2, bovine factor Xa (Bos taurus, UniProt P00743); assay: Protease inhibitory assay, chromogenic substrate S-2222; format: biochemical; settings: cmpd conc 200 µM; for vinit: replicate values; for pKi: FactorXa, one of two values averaged in Supplementary Data 1, read-out: Ki
T2 construct: bovine factor Xa, Chromogenix, 2 nkat/mL; purchased Chromogenix
T2 sequence (P00743 234-492 limits assumed): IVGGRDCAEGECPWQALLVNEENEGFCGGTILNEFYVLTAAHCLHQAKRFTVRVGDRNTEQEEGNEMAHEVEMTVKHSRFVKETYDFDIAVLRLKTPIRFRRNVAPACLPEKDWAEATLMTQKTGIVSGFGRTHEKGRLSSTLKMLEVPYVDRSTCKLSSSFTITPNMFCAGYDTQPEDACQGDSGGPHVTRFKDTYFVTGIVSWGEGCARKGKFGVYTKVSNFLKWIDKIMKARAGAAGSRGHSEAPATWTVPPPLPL
T2 sequence (P00743 41-180 partner limits assumed): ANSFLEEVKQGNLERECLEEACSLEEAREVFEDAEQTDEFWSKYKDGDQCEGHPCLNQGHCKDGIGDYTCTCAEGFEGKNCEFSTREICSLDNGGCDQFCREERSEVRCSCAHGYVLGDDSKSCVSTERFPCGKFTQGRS

[1] = Thrombin primary screening, substrate 40 µM, cmpd conc 500 µM
[2] = FactorXa primary screening, substrate 100 µM
[3] = FactorXa Ki determination, substrate 100 µM
[4] = FactorXa Ki determination, substrate 200 µM
[5] = Thrombin Ki determination, substrate 20 µM, cmpd conc 200 µM
[6] = Thrombin Ki determination, substrate 40 µM, cmpd conc 200 µM
[7] = substrate 20 µM, cmpd conc 200 µM
[8] = substrate 40 µM, cmpd conc 200 µM

Compound	V0 / Vi (human thrombin; [1])	vinit (human thrombin; [1])	V0 / Vi (bovine factor Xa; [2])	vinit (bovine factor Xa; [2])	also measured
Fc1ccc2c(C3CCNCC3)c[nH]c2c1 [SX-H4]	0.95	34.909 and 34.764	0.92	18 and 18.9	–
Cn1c(N)nc2ccccc21 [SX-A6]	0.93	31.891 and 32.182	1.45	10.544 and 13.214	V0 / Vi (bovine factor Xa; [3]): 1.48; vinit, avrg. (bovine factor Xa; [3]): 10.970; vinit (bovine factor Xa; [3]): 10.624 and 11.848 and 10.44; V0 / Vi (bovine factor Xa; [4]): 1.30; vinit (bovine factor Xa; [4]): 28.578 and 28.05 and 27.32; pKi (bovine factor Xa; substrate 100 µM): 3.59; pKi (bovine factor Xa; substrate 200 µM): 3.53
O=C(CN1CCCC1)c1ccccc1Cl [SX-G10]	0.99	33.345 and 33.273	1.00	17.7 and 16.3	–
C1=C[C@H]2O[C@@H]1c1ccccc12 [SX-C11]	0.96	33.564 and 31.964	0.94	15.415 and 15.185	–
COc1ccc(C2=CCNCC2)cc1 [SX-G1]	1.03	31.055 and 32.691	0.93	19.4 and 17.2	–
Nc1nnc2ccccn12 [SX-A5]	0.99	30.873 and 29.418	0.96	17.929	–
Oc1ccc(C2CCNCC2)cc1 [SX-E11]	1.00	31.345 and 31.818	0.73	18.742 and 20.658	–
CCCN1C(=O)CC(=O)NC1=S [SX-D5]	1.13	26.909 and 25.673	1.06	16.429 and 16.071	–
O=C1CCCc2occc21 [SX-B3]	0.97	30.582 and 29.818	1.01	17.709 and 16.909	–
COc1ccccc1N1CCNCC1 [SX-A10]	0.96	33.236 and 32.218	0.98	14.286 and 15.286	–
O=C(c1ccccc1)N1CCC(CO)CC1 [SX-H9]	1.03	31.714 and 29.571	0.93	17.7 and 16.5	–
O=C(c1ccncc1)N1CCNCC1 [SX-E2]	0.93	31.236 and 31.673	0.96	17.673 and 18.8	–
O=C(O)CC1CCC(=O)N1 (stereo not drawn) [SX-H2]	1.12	30.691 and 28	1.01	17.5 and 16.3	–
CS(=O)(=O)Nc1ccc(C(=O)O)cc1 [SX-G12]	1.06	31.418 and 30.764	1.01	17.2 and 16.5	–
O=C(Nc1ccccc1)C1CC1 [SX-F6]	0.98	29.527 and 31.309	0.98	18 and 17.071	–
Cc1cc(C)c2c(=O)[nH]n(C)c2n1 [SX-F12]	0.97	31.745 and 32.764	1.09	11.4 and 15	–
O=C(NC1CC1)c1ccccc1O [SX-G4]	1.01	31.745 and 33.345	0.96	17.5 and 17.8	–
O=C1CC(CSc2ccc(Cl)cc2)=NN1 [SX-H8]	0.97	33.5 and 31.286	0.99	15.686 and 16.6	–
Nc1nnc(-c2cccs2)[nH]1 [SX-D3]	1.08	26.655 and 27.673	1.09	16.545 and 15.782	V0 / Vi (human thrombin; [5]): 1.11; vinit, avrg. (human thrombin; [5]): 23.831; vinit (human thrombin; [5]): 23.075 and 23.01 and 25.41; V0 / Vi (human thrombin; [6]): 1.08; vinit, avrg. (human thrombin; [6]): 31.345; vinit (human thrombin; [6]): 30.327 and 31.656 and 32.05; pKi (human thrombin; [7]): 3.69; pKi (human thrombin; [8]): 3.80
CS(=O)(=O)c1ccc(N2CCNCC2)cc1 [SX-B1]	–	29.818 and 32	–	18 and 19.091	–
c1ccc2c(N3CCNCC3)ccnc2c1 [SX-C4]	1.01	30.291 and 29.018	1.03	16.357 and 17	–
NC(c1ccccc1)c1ccccc1 [SX-C3]	1.07	27.818 and 27.309	0.95	19.527 and 17.564	–

Compound	V0 / Vi (human thrombin; [1])	vinit (human thrombin; [1])	V0 / Vi (bovine factor Xa; [2])	vinit (bovine factor Xa; [2])	also measured
O=c1[nH]ncc2c1oc1ccccc12 [SX-B6]	1.05	28.582 and 28.145	1.00	17.214 and 17.071	–
N#Cc1ccc(C(=O)N2CCOCC2)cc1 [SX-E10]	1.00	33.091 and 29.782	1.00	14.2 and 14.8	–
O=C(O)c1cccc(Nc2ncccn2)c1 [SX-F5]	1.09	26.836 and 28	0.98	17.143 and 18.071	–
Cn1nc(C(F)(F)F)cc1O [SX-H6]	1.11	29.345 and 30.109	1.13	14.3 and 15.9	–
CC(=O)c1ccc2c(c1)CCCN2 [SX-C7]	0.96	32.218 and 32.109	1.02	17.382 and 17.673	–
N#Cc1ccc2ncsc2c1 [SX-C12]	0.98	31.855 and 32.109	1.17	10.6 and 14	–
N[C@H]1c2ccccc2C[C@H]1CO [SX-B5]	0.98	32.873 and 28.182	0.91	18.071 and 19.643	–
c1ccc(Nc2nncs2)cc1 [SX-D8]	0.99	30.873 and 31.527	1.17	15.418 and 15.164	V0 / Vi (bovine factor Xa; [3]): 1.15; vinit, avrg. (bovine factor Xa; [3]): 14.126; vinit (bovine factor Xa; [3]): 15.1223 and 13.77 and 13.49; V0 / Vi (bovine factor Xa; [4]): 1.14; vinit (bovine factor Xa; [4]): 30.094 and 32.958 and 33.09; pKi (bovine factor Xa; substrate 100 µM): 3.09; pKi (bovine factor Xa; substrate 200 µM): 3.19
N#CCCN1CCc2ccccc21 [SX-F4]	1.01	31.2 and 28.109	1.01	16.857 and 17.357	–
O=C(O)c1ccc(CN2CCOCC2)cc1 [SX-H1]	1.07	31.127 and 30.255	0.98	17.6 and 17	–
O=C(O)C1CCCN(C(=O)N2CCCC2)C1 (stereo not drawn) [SX-G6]	1.18	27.345 and 28.364	1.09	16.1 and 15	–
CCN(CC)c1cccc(C)c1 [SX-E4]	0.95	31.418 and 31.2	0.95	17.571 and 18.5	–
Cc1cc(N)no1 [SX-B11]	1.00	30.982 and 31.927	0.97	13.08 and 16.72	–
CS(=O)(=O)c1ccc(OC(F)(F)F)cc1 [SX-B8]	0.99	31.709 and 31.2	0.94	20.109 and 18.073	–
NC1CCc2ccccc21 (stereo not drawn) [SX-B4]	0.96	31.2 and 30.982	0.93	18.714 and 18.143	–
COc1cccc(NC2=NCCCCC2)c1 [SX-E8]	0.88	35.818 and 34.764	0.96	18.764 and 18.473	–
O=c1[nH]c2c(s1)CCC2 [SX-C10]	0.94	33.418 and 33.127	1.04	13.7 and 14.2	–
CN1CC(=O)NC1=O [SX-B10]	0.98	32.909 and 30.982	0.98	14 and 15.6	–
CCc1ccc(NC2=NCCCS2)cc1 [SX-D2]	0.96	30.909 and 30.582	1.02	16.873 and 17.6	–
CC(=O)c1sc(-c2ccc(O)cc2)nc1C [SX-E1]	1.10	25.309 and 28	1.17	15.455 and 14.545	V0 / Vi (human thrombin; [5]): 1.09; vinit, avrg. (human thrombin; [5]): 24.296; vinit (human thrombin; [5]): 24.026 and 25.131 and 23.73; V0 / Vi (human thrombin; [6]): 1.06; vinit, avrg. (human thrombin; [6]): 31.885; vinit (human thrombin; [6]): 32.585 and 30.957 and 32.11; pKi (human thrombin; [7]): 3.60; pKi (human thrombin; [8]): 3.68; V0 / Vi (bovine factor Xa; [3]): 1.16; vinit, avrg. (bovine factor Xa; [3]): 14.048; vinit (bovine factor Xa; [3]): 13.804 and 13.836 and 14.50; V0 / Vi (bovine factor Xa; [4]): 1.13; vinit (bovine factor Xa; [4]): 32.734 and 31.114 and 32.88; pKi (bovine factor Xa; substrate 100 µM): 3.11; pKi (bovine factor Xa; substrate 200 µM): 3.16
CCn1cnc2ccccc21 [SX-D4]	0.98	30.291	1.03	16.929 and 16.571	–

From PMC8159961, “Exploring protein hotspots by optimized fragment pharmacophores” (Nature Communications, 2021)
